Experimental data: US7799821B2, “Therapeutic compounds” (Allergan, Inc., priority 2004, dated 2010)
pEC50: −log10 of the molar value.

Molecular target: T1, hEP2/Gqs5 (Homo sapiens, UniProt P43116)
T1 construct: expressed in transfected cells; host or cells: HEK-293(EBNA)
Test: FLIPR calcium signal, hEP2
Assay type: cell-based
Settings: FLIPR Ca2+ signal, HEK-293(EBNA); read-out: FUNCTIONAL EC50 HEP2
Method: HEK-293(EBNA) cells, stably expressing one type or subtype of recombinant human prostaglandin receptors (prostaglandin receptors expressed: hDP/Gqs5; hEP1; hEP2/Gqs5; hEP3A/Gqi5; hEP4/Gqs5; hFP; hIP; hTP), were cultured in 100 mm culture dishes in high-glucose DMEM medium containing 10% fetal bovine serum, 2 mM 1-glutamine, 250 μg/ml geneticin (G418) and 200 μg/ml hygromycin B as selection markers, and 100 units/ml penicillin G, 100 μg/ml streptomycin and 0.25 μg/ml amphotericin B. • (b) Calcium Signal Studies on the FLIPR™
Cells were seeded at a density of 5×10^4 cells per well in Biocoat® Poly-D-lysine-coated black-wall, clear-bottom 96-well plates (Becton-Dickinson) and allowed to attach overnight in an incubator at 37° C. Cells were then washed two times with HBSS-HEPES buffer (Hanks Balanced Salt Solution without bicarbonate and phenol red, 20 mM HEPES, pH 7.4) using a Denley Cellwash plate washer (Labsystems). After 45 minutes of dye-loading in the dark, using the calcium-sensitive dye Fluo-4 AM at a final concentration of 2 μM, plates were washed four times with HBSS-HEPES buffer to remove excess dye leaving 100 μl in each well. Plates were re-equilibrated to 37° C. for a few minutes.
Cells were excited with an Argon laser at 488 nm, and emission was measured through a 510-570 nm bandwidth emission filter (FLIPR™, Molecular Devices, Sunnyvale, Calif.). Drug solution was added in a 50 μl volume to each well to give the desired final concentration. The peak increase in fluorescence intensity was recorded for each well. On each plate, four wells each served as negative (HBSS-HEPES buffer) and positive controls (standard agonists: BW245C (hDP); PGE2 (hEP1; hEP2/Gqs5; hEP3A/Gqi5; hEP4/Gqs5); PGF2α (hFP); carbacyclin (hIP); U-46619 (hTP), depending on receptor). The peak fluorescence change in each drug-containing well was then expressed relative to the controls.
Compounds were tested in a high-throughput (HTS) or concentration-response (CoRe) format. In the HTS format, forty-four compounds per plate were examined in duplicates at a concentration of 10^−5 M. To generate concentration-response curves, four compounds per plate were tested in duplicates in a concentration range between 10^−5 and 10^−11 M. The duplicate values were averaged. In either, HTS or CoRe format each compound was tested on at least 3 separate plates using cells from different passages to give an n≧3.

T1 sequence (P43116 whole entry): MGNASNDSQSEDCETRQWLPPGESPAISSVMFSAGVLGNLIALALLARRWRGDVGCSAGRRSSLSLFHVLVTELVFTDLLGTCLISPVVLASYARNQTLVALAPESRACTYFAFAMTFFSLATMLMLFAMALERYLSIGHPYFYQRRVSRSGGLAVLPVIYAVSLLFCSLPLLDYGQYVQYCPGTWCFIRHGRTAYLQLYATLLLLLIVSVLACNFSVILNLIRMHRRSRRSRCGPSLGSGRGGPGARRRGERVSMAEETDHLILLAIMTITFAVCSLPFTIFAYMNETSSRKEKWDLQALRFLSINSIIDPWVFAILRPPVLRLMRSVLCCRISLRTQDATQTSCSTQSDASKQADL

SMILES	pEC50
O=C(O)CCCCCC[C@@H]1[C@@H](c2ccc(C(O)C3CCCCC3)cc2)[C@H](O)C[C@H]1Cl (stereo partly shown)	5.55
COC(=O)CCCCCC[C@H]1C(=O)C[C@@H](O)[C@@H]1c1ccc(C(O)C2CCCCC2)cc1 (stereo partly shown)	< 5.00
CCCC1(C(O)c2ccc([C@H]3[C@H](O)CC(=O)[C@@H]3CCCCCCC(=O)OC)cc2)CCC1 (stereo partly shown)	< 5.00
CCCC1(C(O)c2ccc([C@@H]3[C@@H](C/C=C\CCCC(=O)O)[C@H](Cl)C[C@H]3O)cc2)CCC1 (stereo partly shown)	5.64
O=C(O)COCCCC[C@@H]1[C@@H](c2ccc(C(O)C3CCCCC3)cc2)[C@H](O)C[C@H]1Cl (stereo partly shown)	4.68
COC(=O)CCC/C=C\C[C@@H]1[C@@H](c2ccc(C3(O)CCC3)cc2)[C@H](O)C[C@H]1Cl	< 5.00
COC(=O)CCC/C=C\C[C@@H]1[C@@H](c2ccc(CO)cc2)[C@H](O)C[C@H]1Cl	< 5.00
COC(=O)CCCCCC[C@@H]1[C@@H](c2ccc(C(C)(C)C)cc2)[C@H](O)C[C@H]1Cl	< 5.00
CC(C)(CO)c1ccc([C@@H]2[C@@H](C/C=C\CCCC(=O)O)[C@H](Cl)C[C@H]2O)cc1 [drawing 114]	< 5.00

The remaining lines, values ahead:

pEC50	SMILES
6.20	CCCC1(C(O)c2ccc([C@H]3[C@H](O)CC(=O)[C@@H]3CCCCCCC(=O)O)cc2)CCC1 (stereo partly shown)
5.81	O=C(O)COCC#CCC1[C@H](Cl)C[C@@H](O)[C@@H]1c1ccc(C(O)C2CCCCC2)cc1 (stereo partly shown)
6.41	O=C(O)CCC/C=C\C[C@@H]1[C@@H](c2ccc(C(O)C3CCCCC3)cc2)[C@H](O)C[C@H]1Cl (stereo partly shown) [drawing 77]
5.43	CCCC1(C(O)c2ccc([C@H]3[C@H](O)CC(=O)[C@@H]3C/C=C\CCCC(=O)O)cc2)CCC1 (stereo partly shown)
< 5.00	CCCC1(C(O)c2ccc([C@@H]3[C@@H](C/C=C\CCCC(=O)OC)[C@H](Cl)C[C@H]3O)cc2)CCC1 (stereo partly shown)
5.28	CCCC1(C(O)c2cccc([C@H]3[C@H](O)CC(=O)[C@@H]3CCCCCCC(=O)O)c2)CCC1 (stereo partly shown)
< 5.00	O=C(O)CCC/C=C\C[C@H]1C(=O)C[C@@H](O)[C@@H]1c1ccc(C(O)C2CCCCC2)cc1 (stereo partly shown)
< 5.00	O=C(O)CCCCCC[C@@H]1[C@@H](c2ccc(CO)cc2)[C@H](O)C[C@H]1Cl
6.35	O=C(O)CCCCCC[C@H]1C(=O)C[C@@H](O)[C@@H]1c1ccc(C(O)C2CCCCC2)cc1 (stereo partly shown)
< 5.00	COC(=O)CCCCCC[C@H]1C(=O)C[C@@H](O)[C@@H]1c1ccc(C)cc1
< 5.00	O=C(O)CCC/C=C\C[C@H]1C(=O)C[C@@H](O)[C@@H]1c1ccc(C2(O)CCC2)cc1

Same assay, conditions: read-out: FUNCTIONAL Ca2+ EC50 HEP2

pEC50	SMILES
< 5.00	O=C(O)CCCCCC[C@H]1C(=O)CC[C@@H]1c1ccc(C2(O)CCC2)cc1
< 5.00	COC(=O)CCC/C=C\C[C@H]1C(=O)CC[C@@H]1c1ccc([C@H](O)C2CCCCC2)cc1
